Laboratory results from PMC4048319, “Design and Synthesis of High Affinity Inhibitors of Plasmodium falciparum and Plasmodium vivax N-Myristoyltransferases Directed by Ligand Efficiency Dependent Lipophilicity (LELP)” (Journal of Medicinal Chemistry, 2014).

Tests used:
PfNMT [1] = target: T1, PfNMT (Plasmodium falciparum, UniProt Q9U419); experiment: NMT enzyme inhibition, CPM fluorescence assay (PfNMT); format: biochemical
T1 sequence (Q9U419 1-410): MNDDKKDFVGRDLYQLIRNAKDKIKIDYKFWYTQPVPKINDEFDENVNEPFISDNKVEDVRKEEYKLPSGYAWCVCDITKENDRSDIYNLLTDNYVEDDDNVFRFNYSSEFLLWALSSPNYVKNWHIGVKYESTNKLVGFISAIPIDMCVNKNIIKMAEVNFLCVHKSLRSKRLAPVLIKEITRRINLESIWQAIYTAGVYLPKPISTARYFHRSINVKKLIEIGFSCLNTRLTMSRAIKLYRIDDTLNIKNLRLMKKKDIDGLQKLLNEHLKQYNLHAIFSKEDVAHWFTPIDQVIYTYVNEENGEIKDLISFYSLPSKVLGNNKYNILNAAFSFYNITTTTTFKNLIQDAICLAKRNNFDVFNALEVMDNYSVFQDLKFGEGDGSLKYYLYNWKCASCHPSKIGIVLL
Experimental: (§1) All IC50 determinations were carried out using a 7-diethylamino-3-(4′-maleimidylphenyl)-4-methylcoumarin (CPM) fluorescence assay, as described previously for HsNMT1,[45] PvNMT,[46] and PfNMT.[21]
(§2) IC50 values are the mean value of two or more determinations, and standard deviation is within 20% of the IC50 unless otherwise specified. Data were elaborated using Microsoft Office Excel 2010, and IC50 values were determined using GraFit 7.0 (Erithacus Software Ltd., U.K.) by nonlinear regression fitting, which were then quoted as Ki as defined below.
(§3) The Michaelis constant (Km) was 3.64 μM and the substrate concentration was 4.00 μM, resulting in a Ki of 0.008 μM. Km values were calculated as described previously.[45]

PvNMT = target: T2, PvNMT (Plasmodium vivax, UniProt A5K1A2); experiment: NMT enzyme inhibition, CPM fluorescence assay (PvNMT); format: biochemical
T2 sequence (A5K1A2 1-410): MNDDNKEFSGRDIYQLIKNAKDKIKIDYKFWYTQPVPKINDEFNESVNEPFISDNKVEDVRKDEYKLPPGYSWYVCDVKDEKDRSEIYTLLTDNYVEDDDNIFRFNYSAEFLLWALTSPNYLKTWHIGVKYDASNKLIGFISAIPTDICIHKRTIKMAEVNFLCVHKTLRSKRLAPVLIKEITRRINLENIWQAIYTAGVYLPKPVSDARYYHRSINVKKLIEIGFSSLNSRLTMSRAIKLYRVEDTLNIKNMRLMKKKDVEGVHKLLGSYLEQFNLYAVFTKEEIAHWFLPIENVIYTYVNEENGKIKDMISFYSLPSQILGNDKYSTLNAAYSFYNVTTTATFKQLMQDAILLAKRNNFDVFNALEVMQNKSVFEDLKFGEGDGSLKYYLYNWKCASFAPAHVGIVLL
Experimental: as §1, §2, §3

PfNMT [2] = target: T1, PfNMT; experiment: LELP (cLogP/LE, PfNMT LE)
[3] = test system: Plasmodium falciparum 3D7; experiment: Plasmodium falciparum Sybr Green viability assay (3D7); format: cell-based; conditions: blood stage, Sybr Green fluorometric assay, 96 h, read-out: Pf 3D7 EC50
Experimental: Synchronous Plasmodium falciparum 3D7 late stage trophozoites at 33–36 h were used. […] Red blood cells used for the assay were centrifuged to remove the buffy coat and washed twice in Roswell Park Memorial Institute (RPMI) medium 1640 so that no white blood cells were present. The culture medium contained RPMI 1640 with 5 g/L Albumax, 0.025 g/L gentamycin, and 0.292 g/L L-glutamine. Sterile 96-well black tissue culture plates (Costar) were used routinely for every assay. […] Two sets of control were used in duplicate wells, one set with no added drugs (positive control) and one with uninfected red blood cells (negative control). […] After 48 h supernatants were taken from each well and replaced with fresh drug and incubated for a further 48 h in the same manner. At the end of the 96 h incubation, 25 μL of SYBR Green I dye (SYBR Green I nucleic acid gel stain 10000×, in DMSO from Invitrogen) in lysis buffer (1 μL dye to 1 mL of lysis buffer) was added to each well and stored overnight at −20 °C. […] Plates were warmed to room temperature, and fluorescence intensity was measured with a FLUOstar Omega microplate fluorescence reader (BMG Labtech). Values were expressed in relative fluorescence units. […] Fluorescence intensity unit was converted to percentage (%) of growth as follows: [drawing 2]

With `COc1cccc(COC(=O)c2sc3ccccc3c2OC2CCNCC2)c1` [compound 1] the Ki (PfNMT [1]) was 832 nM, the Ki (PvNMT) was 84 nM and the LELP (PfNMT [2]) was 13.5. For the same compound, the EC50 [3] was 2000 nM.
